For orientation: IC50 means the concentration that gives 50% inhibition. For orientation: Ki means a measure of affinity in units of concentration, obtained from inhibition or displacement. High values mean lower affinity, low ones higher affinity.

Each structure is given as a SMILES string. Several values for one entry are separate records, joined by “and”; a condition that tells them apart may be missing. Equal entries are not always repeated. Where two headings read alike, the source gives them in different places.

Drawing on patent US8193191B2, “Urotensin II receptor antagonists” (Janssen Pharmaceutica N.V., priority 2006, dated 2012), this text covers inhibition, IC50 and Ki for 19 compounds.

The target in experiment [1] is T1, rat GPR14 (U-II receptor) (Rattus norvegicus, UniProt P49684).
T1 construct: expressed in transfected cells
T1 sequence (P49684 1-386): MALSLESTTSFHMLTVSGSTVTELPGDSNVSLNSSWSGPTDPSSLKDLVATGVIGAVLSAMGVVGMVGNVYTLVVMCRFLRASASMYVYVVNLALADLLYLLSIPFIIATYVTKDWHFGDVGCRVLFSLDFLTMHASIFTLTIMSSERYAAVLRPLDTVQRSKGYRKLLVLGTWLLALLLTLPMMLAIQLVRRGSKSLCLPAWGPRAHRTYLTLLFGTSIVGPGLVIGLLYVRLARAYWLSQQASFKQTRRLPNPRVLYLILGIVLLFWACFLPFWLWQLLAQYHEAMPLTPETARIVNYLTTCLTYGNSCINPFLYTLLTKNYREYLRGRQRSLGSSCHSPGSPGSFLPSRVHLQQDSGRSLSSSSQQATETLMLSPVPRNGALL
As to the kind of experiment: Rat UII Calcium Mobilization FLIPR Assay. Particulars: for inhibition at 10 µM / inhibition at 50 µM: CHO, 5 min, agonist-induced Ca2+ mobilization (FLIPR), CHO cells with rat UII receptor; for inhibition at 10 µM: 10 μM compound, read-out: % I @ 10; for inhibition at 50 µM: 50 μM compound, read-out: % I @ 50. It is filed as cell-based. From the text: To derive these cells, the complete coding sequence of rat U-II (Genbank Accession No. U32673) was amplified by nested PCR from rat heart marathon-Ready cDNA. […] The PCR products were cloned into pcDNA3 (Invitrogen) digested with EcoR I and Xba I. Clones containing rat U-II receptor were verified by complete sequencing of the U-II receptor insert to ensure a lack of PCR-introduced errors. The constructed vector was transfected into CHO cells by using lipofectamine (GIBCO BRL). CHO cells with high expression of rat U-II receptor were selected and established as stable cell lines by using G418. CHO cells were seeded at 25,000 cells per well into 96-well, black-wall, clear-bottom microtiter plates 24 h before assay. Cells in culture media (DMEM/F12 containing 15 mM HEPES, L-glutamine, pyridoxine hydrochloride; 10% fetal bovine serum; 1 mg/mL G418 sulfate; antibiotic-antimycotic; pH 7.4) were loaded with proprietary dye, from the FLIPR Calcium Assay Kit (Molecular Devices), prepared in assay buffer (Hanks Balanced Salts Solution, 20 mM HEPES, 0.1% BSA, 2.5 mM probenecid, pH 7.4), and incubated for 1 h at 37° C. Calcium mobilization determinations were performed at room temperature (23° C.).

In experiment [2] the target is T2, endogenous human UII receptor (Homo sapiens, UniProt Q9UKP6).
T2 sequence (Q9UKP6 1-389): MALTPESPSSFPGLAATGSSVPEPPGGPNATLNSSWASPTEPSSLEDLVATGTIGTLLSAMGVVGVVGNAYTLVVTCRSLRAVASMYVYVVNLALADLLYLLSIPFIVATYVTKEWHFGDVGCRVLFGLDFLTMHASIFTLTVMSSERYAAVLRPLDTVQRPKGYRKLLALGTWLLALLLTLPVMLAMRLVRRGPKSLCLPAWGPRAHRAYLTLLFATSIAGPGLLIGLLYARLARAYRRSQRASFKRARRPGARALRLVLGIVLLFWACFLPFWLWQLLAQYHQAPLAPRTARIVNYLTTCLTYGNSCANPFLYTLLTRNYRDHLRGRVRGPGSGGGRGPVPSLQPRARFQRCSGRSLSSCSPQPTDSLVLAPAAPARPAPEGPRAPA
As to the kind of experiment: Human Radioligand Binding Assay ((^125I)-U-II binding to human skeletal muscle myoblasts).

[3] abbreviates: Inhibition of Acetyl-cyclic[Cys-Phe-Trp-Lys-(2-Nal)-Cys]-NH2 induced Ca2+ mobilization (FLIPR) in CHO cells transfected with rat UII receptor, read-out: IC50.
Setting [4] is: Inhibition of human UII binding to human skeletal muscle myoblasts containing endogenous human UII receptor.
Where [5] appears, read: average value for the compound tested, read-out: Rat UII FLIPR Average IC50.

With `COc1ccc(CN2C(=O)c3cccc(N4CCN([C@H](C)c5ccccc5)CC4)c3C2=O)cc1OC` [Cpd 1, 2-(3,4-dimethoxy-benzyl)-4-[4-(1R)-(1-phenyl-ethyl)-piperazin-1-yl]-isoindole-1,3-dione], in experiment [1], the inhibition at 10 µM was 99% and the inhibition at 50 µM was 99%. Further, in experiment [1] (setting [3]), the IC50 was 46 nM and 84 nM. In experiment [2] (setting [4]), the Ki is 570 nM.

Consider `COc1ccc(C(C)N2C(=O)c3cccc(N4CCN([C@H](C)c5ccccc5)CC4)c3C2=O)cc1OC` (stereo partly drawn) [Cpd 2, 2-[1-(3,4-dimethoxy-phenyl)-ethyl]-4-[4-(1R)-(1-phenyl-ethyl)-piperazin-1-yl]-isoindole-1,3-dione], for which, in experiment [1], the inhibition at 10 µM was found to be 101% and the inhibition at 50 µM came out at 103%. Also, in experiment [1] (setting [3]), the IC50 turned out to be 70 nM. The compound further displayed a Ki in experiment [2] (setting [4]) of 310 nM.

`COc1ccc([C@H](C)N2C(=O)c3cccc(N4CCN([C@H](C)c5ccccc5)CC4)c3C2=O)cc1OC` [Cpd 3, 2-[(S)-1-(3,4-dimethoxy-phenyl)-ethyl]-4-[4-(1R)-(1-phenyl-ethyl)-piperazin-1-yl]-isoindole-1,3-dione]: in experiment [1], the inhibition at 10 µM turned out to be 100% and the inhibition at 50 µM stood at 101%. For the same compound, the IC50 in experiment [1] (setting [3]) was found to be 130 nM. In experiment [2] (setting [4]), this compound displayed a Ki of 160 nM.

For `COc1ccc([C@@H](C)N2C(=O)c3cccc(N4CCN([C@H](C)c5ccccc5)CC4)c3C2=O)cc1OC` [Cpd 4, (R)-2-[1-(3,4-dimethoxy-phenyl)-ethyl]-4-[4-(1R)-(1-phenyl-ethyl)-piperazin-1-yl]-isoindole-1,3-dione], in experiment [1], the inhibition at 10 µM is 100% and the inhibition at 50 µM was determined as 100%. In addition, the IC50 in experiment [1] (setting [3]) is 150 nM. Affinity in experiment [2] (setting [4]) was put at a Ki of 230 nM.

Turning to `COc1ccc(CN2C(=O)c3cccc(N4CCN(Cc5ccccc5)CC4)c3C2=O)cc1OC` [Cpd 5, 4-(4-benzyl-piperazin-1-yl)-2-(3,4-dimethoxy-benzyl)-isoindole-1,3-dione], in experiment [1], the inhibition at 10 µM amounted to 99% and the inhibition at 50 µM was 99%. Also, in experiment [1] (setting [3]), the IC50 stood at 151 nM. In experiment [2], this compound returned a Ki of 1500 nM.

Regarding `COc1ccc(CN2C(=O)c3cccc(N4CCN(C(C)c5ccccc5)CC4)c3C2=O)cc1OC` (centres unmarked) [Cpd 6, 2-(3,4-dimethoxy-benzyl)-4-[4-(1-phenyl-ethyl)-piperazin-1-yl]-isoindole-1,3-dione], in experiment [1], the inhibition at 10 µM was 103% and the inhibition at 50 µM came out at 102%. The IC50 in experiment [1] (setting [3]) came out at 160 nM. This compound also returned a Ki in experiment [2] of 1200 nM.

Turning to `COc1ccc(CN2C(=O)c3cccc(N4CC5CCC(C4)N5Cc4ccccc4)c3C2=O)cc1OC` [Cpd 7, 4-(8-benzyl-3,8-diaza-bicyclo[3.2.1]oct-3-yl)-2-(3,4-dimethoxy-benzyl)-isoindole-1,3-dione], the inhibition at 10 µM in experiment [1] stood at 89%. Also, in experiment [1] (setting [3]), the IC50 was 220 nM and 180 nM. In experiment [2], this compound yielded a Ki of 200 nM.

Turning to `COc1ccc(C(CCCNS(=O)(=O)c2ccc(Cl)s2)N2C(=O)c3cccc(N4CCN([C@H](C)c5ccccc5)CC4)c3C2=O)cc1OC` (stereo partly drawn) [Cpd 71, 5-chloro-thiophene-2-sulfonic acid (4-(3,4-dimethoxy-phenyl)-4-{1,3-dioxo-4-[4-(1R)-(1-phenyl-ethyl)-piperazin-1-yl]-1,3-dihydro-isoindol-2-yl}-butyl)-amide], in experiment [1], the inhibition at 10 µM came to 58% and the inhibition at 50 µM amounted to 37%. Moreover, in experiment [1] (setting [3]), the IC50 came to 1700 nM.

Take `COc1ccc(CN2C(=O)c3cccc(N4CCN(CC(C)C)CC4)c3C2=O)cc1OC` [Cpd 82, 2-(3,4-dimethoxy-benzyl)-4-(4-isobutyl-piperazin-1-yl)-isoindole-1,3-dione]: the IC50 in experiment [1] (setting [5]) came to 4700 nM.

In the case of `COc1ccc(CN2C(=O)c3cccc(N4CCN(Cc5ccccn5)CC4)c3C2=O)cc1OC` [Cpd 84, 2-(3,4-dimethoxy-benzyl)-4-(4-pyridin-2-ylmethyl-piperazin-1-yl)-isoindole-1,3-dione], in experiment [1] (setting [5]), the IC50 is 2800 nM.

Regarding `COc1ccc(C(CCCNS(=O)(=O)c2cc(S(=O)(=O)c3ccccc3)cs2)N2C(=O)c3cccc(N4CCN([C@H](C)c5ccccc5)CC4)c3C2=O)cc1OC` (stereo partly drawn) [Cpd 92, 4-benzenesulfonyl-thiophene-2-sulfonic acid (4-(3,4-dimethoxy-phenyl)-4-{1,3-dioxo-4-[4-(1R)-(1-phenyl-ethyl)-piperazin-1-yl]-1,3-dihydro-isoindol-2-yl}-butyl)-amide], the IC50 in experiment [1] (setting [5]) stood at 920 nM.

In the case of `COc1ccc(C(CCCNS(=O)(=O)c2ccc(Br)s2)N2C(=O)c3cccc(N4CCN([C@H](C)c5ccccc5)CC4)c3C2=O)cc1OC` (stereo partly drawn) [Cpd 100, 5-bromo-thiophene-2-sulfonic acid (4-(3,4-dimethoxy-phenyl)-4-{1,3-dioxo-4-[4-(1R)-(1-phenyl-ethyl)-piperazin-1-yl]-1,3-dihydro-isoindol-2-yl}-butyl)-amide], the IC50 in experiment [1] (setting [5]) is 570 nM.

As to `COc1ccc(C(CCCNS(=O)(=O)C=Cc2ccccc2)N2C(=O)c3cccc(N4CCN([C@H](C)c5ccccc5)CC4)c3C2=O)cc1OC` (stereo partly drawn) [Cpd 111, 2-phenyl-ethenesulfonic acid (4-(3,4-dimethoxy-phenyl)-4-{1,3-dioxo-4-[4-(1R)-(1-phenyl-ethyl)-piperazin-1-yl]-1,3-dihydro-isoindol-2-yl}-butyl)-amide], in experiment [1] (setting [5]), the IC50 is 150 nM.

Regarding `COc1ccc(C(CCCNS(=O)(=O)c2cc(Cl)sc2Cl)N2C(=O)c3cccc(N4CCN([C@H](C)c5ccccc5)CC4)c3C2=O)cc1OC` (stereo partly drawn) [Cpd 113, 2,5-dichloro-thiophene-3-sulfonic acid (4-(3,4-dimethoxy-phenyl)-4-{1,3-dioxo-4-[4-(1R)-(1-phenyl-ethyl)-piperazin-1-yl]-1,3-dihydro-isoindol-2-yl}-butyl)-amide], in experiment [1] (setting [5]), the IC50 was determined as 2600 nM.

As to `COc1ccc(C(CCCNS(=O)(=O)c2csc3ccccc23)N2C(=O)c3cccc(N4CCN([C@H](C)c5ccccc5)CC4)c3C2=O)cc1OC` (stereo partly drawn) [Cpd 116, benzo[b]thiophene-3-sulfonic acid (4-(3,4-dimethoxy-phenyl)-4-{1,3-dioxo-4-[4-(1R)-(1-phenyl-ethyl)-piperazin-1-yl]-1,3-dihydro-isoindol-2-yl}-butyl)-amide], the IC50 in experiment [1] (setting [5]) was determined as 1400 nM.

With `COc1ccc(C(CCCNC(=O)Nc2cccs2)N2C(=O)c3cccc(N4CCN([C@H](C)c5ccccc5)CC4)c3C2=O)cc1OC` (stereo partly drawn) [Cpd 120, 1-(4-(3,4-dimethoxy-phenyl)-4-{1,3-dioxo-4-[4-(1R)-(1-phenyl-ethyl)-piperazin-1-yl]-1,3-dihydro-isoindol-2-yl}-butyl)-3-thiophen-2-yl-urea], in experiment [1] (setting [5]), the IC50 is 310 nM.

Take `COc1ccc(C(CCNC(=O)Nc2cccs2)N2C(=O)c3cccc(N4CCN([C@H](C)c5ccccc5)CC4)c3C2=O)cc1OC` (stereo partly drawn) [Cpd 121, 1-(3-(3,4-dimethoxy-phenyl)-3-{1,3-dioxo-4-[4-(1R)-(1-phenyl-ethyl)-piperazin-1-yl]-1,3-dihydro-isoindol-2-yl}-propyl)-3-thiophen-2-yl-urea]: the IC50 in experiment [1] (setting [5]) was found to be 270 nM.

For `COc1ccc([C@@H](CCCNS(=O)(=O)c2sc3ccc(F)cc3c2C)N2C(=O)c3cccc(N4CCN([C@H](C)c5ccccc5)CC4)c3C2=O)cc1OC` [Cpd 137, (R)-5-fluoro-3-methyl-benzo[b]thiophene-2-sulfonic acid (4-(3,4-dimethoxy-phenyl)-4-{1,3-dioxo-4-[4-(1R)-(1-phenyl-ethyl)-piperazin-1-yl]-1,3-dihydro-isoindol-2-yl}-butyl)-amide], the IC50 in experiment [1] (setting [5]) was 2200 nM.

In the case of `COc1ccc([C@@H](CCCNS(N)(=O)=O)N2C(=O)c3cccc(N4CCN([C@H](C)c5ccccc5)CC4)c3C2=O)cc1OC` [Cpd 141, (R)-N′-[(4-(3,4-dimethoxy-phenyl)-4-{1,3-dioxo-4-[4-(1R)-(1-phenyl-ethyl)-piperazin-1-yl]-1,3-dihydro-isoindol-2-yl}-butyl)]-sulfamide], the Ki in experiment [2] came out at 17 nM.
